This is an account of results in PMC12561670, “Isolation of Dual-Active Drugs with Anticancer and Antibacterial Activities That Target Both Tubulin and FtsZ” (Antibiotics, 2025).

Converted amounts (≈) assume the structure as drawn. Read-outs that look alike come from different tables or passages of the source.

Data set [1] addresses T1, FtsZ (Staphylococcus aureus, UniProt P0A031).
T1 construct: His tag; made in house; host or cells: E. coli BL21(DE3)
T1 sequence (P0A031 1-390): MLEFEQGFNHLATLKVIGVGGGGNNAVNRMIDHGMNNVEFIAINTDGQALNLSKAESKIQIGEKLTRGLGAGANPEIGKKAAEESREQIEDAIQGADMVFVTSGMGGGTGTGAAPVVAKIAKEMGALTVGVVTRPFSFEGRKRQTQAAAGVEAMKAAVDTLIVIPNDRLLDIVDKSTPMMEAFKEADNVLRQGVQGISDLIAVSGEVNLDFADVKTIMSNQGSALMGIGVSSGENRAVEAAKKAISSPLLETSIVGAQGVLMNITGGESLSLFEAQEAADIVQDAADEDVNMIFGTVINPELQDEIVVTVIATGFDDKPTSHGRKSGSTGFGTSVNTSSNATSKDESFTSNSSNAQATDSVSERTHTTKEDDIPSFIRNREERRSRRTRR
The data set can be described thus: Sedimentation assay of FtsZ polymerization. Format: biochemical. As to conditions: 50 μM compound, 5 μM FtsZ, 37 °C 30 min. As for the experimental part: Sedimentation assay was also conducted for the influence of compounds on FtsZ polymerization. FtsZ (5 μM) was polymerized in a buffer containing 25 mM Pipes buffer (pH 6.8) and 3 mM MgSO4 in the […] of DMSO or compounds (50 μM). After the addition of 4 mM GTP, the sample was instantly placed at 37 °C for 30 min. Then, the polymers were collected by centrifuging for 30 min at 25 °C. The protein concentration in the supernatant was determined using the Bradford quantification method, with bovine serum albumin (BSA) as the standard. The experiment was performed in triplicate, and the average absorbance is shown.

The test system of data set [2] is B. subtilis (CICC 21164). The data set can be described thus: MIC, broth microdilution. Format: cell-based. The note with it: Bacillus subtilis; broth microdilution, 18 h, 37 °C; read-out: MIC B. subtilis (CICC 21164). As for the experimental part:
MIC assays were carried out by employing the broth microdilution method in accordance with Clinical and Laboratory Standards Institute (CLSI) guidelines. E. coli BNCC337004, S. aureus BNCC336423, P. aeruginosa BNCC337099, and B. subtilis CICC 21164 were applied for the MIC detection. Mueller–Hinton broth (MHB) was used in bacterial culture, and log-phase bacteria were diluted into a 0.5 McFarland Standard suspension, which was then diluted 1000 times again. Subsequently, 100 μL of the obtained bacterial suspension was placed into each well of 96-well microtiter plates, along with 2-fold serial dilutions of compounds (512, 256, 128, 64, 32, 16, 8, 4, 2, 1, 0.5, 0 μM). The microtiter plates were incubated aerobically for 18 h at 37 °C. The MIC was defined as the lowest drug concentration at which no visible turbidity was observed. All experiments are conducted in three parallel.

Data set [3] concerns A549. In words: Anticancer activity IC50. Format: cell-based. The note with it: Homo sapiens, abstract only.
Data set [4] addresses T2, S. aureus FtsZ (Staphylococcus aureus, UniProt P0A031).
T2 construct: His tag; made in house; host or cells: E. coli BL21(DE3)
T2 sequence (P0A031 1-390): T1 sequence (P0A031 1-390)
In words: FtsZ polymerization assay (A340). Format: biochemical. As for the experimental part:
The effect of compounds on S. aureus FtsZ polymerization was monitored by employing a microtiter plate-based spectrophotometric assay method, and the reactions were conducted in flat-bottomed 96-well microtiter plates. The degree of FtsZ polymerization was reflected by the corresponding changes in absorbance at 340 nm (A340). […] The polymerization reaction began immediately once 4 mM GTP was added, and then the polymerization was continuously monitored at 25 °C for 60 min by measuring A340 in BioTek-Synergy4 multifunctional enzyme-linked immunosorbent assay (ELISA) reader.

Data set [5] has as its system S. aureus BNCC336423. The data set can be described thus: Time–killing curve. Format: cell-based. As to conditions: S. aureus BNCC336423, concentrations of 4× the MIC or greater. On the procedure:
S. aureus BNCC336423 was employed for the time–killing curve study. […] Meanwhile, DMSO with an equivalent volume was added to the vehicle control tube. The cultures were then subjected to shaking incubation at 37 °C. Subsequently, cultures were taken out at predetermined time intervals (0, 1, 2, 4, 6, 8, and 24 h), centrifuged at 16,000×g for 3 min, and diluted to an appropriate multiple. These diluted samples were then plated onto Tryptic Soy Agar (TSA) plates for enumeration. Following a 24 h incubation period at 37 °C, colonies on the TSA plates were counted for the CFU/mL, thereby providing insights into the time-dependent bactericidal activity of the tested compounds.

Data set [6] concerns B. subtilis. The data set can be described thus: Phase-contrast microscopy, cell division inhibition. Format: cell-based. As to conditions: 64 μM, 4 h. On the procedure: Cell Division Inhibitory Screening Assay Cell division inhibitory activity of compounds was conducted as below. […] Afterwards, 1 mL of the sample was centrifuged at 15,000× g for 3 min at room temperature, and the bacterial pellets were washed with 1 mL of PBS before re-centrifugation. The final bacterial pellets obtained were resuspended in 5 mL PBS. 20 μL of bacterial suspension was transferred to slides for microscopy. Cell morphology was estimated by using the phase-contrast method of Olympus IX71 microscopy (Olympus Corporation, Tokyo, Japan) with 400× magnification.

In data set [7] the test system is E. Coli BL21 (DE3). The data set can be described thus: Visualization of Z-ring in bacterial cells (GFP-tagged FtsZ). Format: cell-based. The note with it: 64 μM, 4 h. As for the experimental part: The assay was carried out using a strain of E.coli BL21 (DE3) containing an IPTG-inducible plasmid, which can produce the green fluorescence protein (GFP)-tagged FtsZ to make the Z-ring visible. An overnight culture of E.coli was replated into 1 mL fresh MHB medium and incubated at 37 °C. Until OD600 = 0.3, 40 μM IPTG (Isopropyl β-D-1-thiogalactopyranoside) was added. […] After that, they were centrifuged and re-suspended in PBS, and then observed using the Leica SP-5 laser scanning confocal microscopy. Z-ring analysis was performed by employing LAS-AF-Lite software 2.6.0.

Data set [8] can be described thus: Cytotoxicity, CCK8. Format: cell-based. As to conditions: human, 12 h. As for the experimental part:
The absorbance of 450 nm was measured in an ELISA reader (BioTek-Synergy 4, USA). Then, cell viability was calculated, and the corresponding images were drawn with GraphPad Prism 9.

For `CC(C)(C)c1[nH]cnc1/C=c1\[nH]c(=O)/c(=C/c2ccccc2)[nH]c1=O` [Compound 23, Plinabulin], the “effect on FtsZ sedimentation (polymerization amount)” value in data set [1] is “markedly enhanced protein sedimentation”. In data set [2], the minimum inhibitory concentration (MIC) was found to be 8 µM (≈ 2.69 µg/mL). The compound also displayed an IC50 in data set [3] of 12 nM. The “effect on FtsZ polymerization (A340)” value in data set [4] (50 μM compound, 5 µM FtsZ, 4 mM GTP, vs DMSO) is recorded as “remarkable promoting effect on FtsZ polymerization”. In addition, in data set [4] (5, 10, 20 and 50 μM, initial 10 min), the “effect on FtsZ polymerization at different concentrations” value is “markedly accelerated FtsZ polymerization”. Besides, in data set [5], the “logs of kill in time–kill” value was determined as 3 logs. In data set [6], the “cell morphology of B. subtilis (elongation)” value was “the most pronounced effect”. In data set [7], the Z-ring assembly entry was “disturbed the Z-ring assembly”. Further, the values for the viability at 100 µM in data set [8] (read-out: cell viability HT293 (293T)) and in data set [8] (read-out: cell viability LO2) were 79% and 81%, respectively.
